The series in a line: Human HepG2 cell viability assay in 384 well format. The class given is toxicity, cell-based. On the set-up: dose 125 nL, time 70.5 hour; concentration not given beside the values. Conditions: HepG2 cells, read-out: Inhibition.
Take `O=C(c1ccccc1F)N1CCOC(c2nc(-c3ncccn3)no2)C1` (stereo not drawn): the cytotoxicity at 70.5 h is -2.38%.

`O=C(c1c[nH]cn1)N1CCC(F)(F)C2(CCN(c3cccc(F)c3)C2)C1` (stereo not drawn): the cytotoxicity at 70.5 h is -7.39%.

Regarding `CC(NCc1ccccn1)c1cc2c(cc1Br)OCCO2` (stereo not drawn), the cytotoxicity at 70.5 h is -4.31%.

In the case of `O=C1CCC2(CCN(Cc3ccc(F)cc3Cl)CC2)CN1CCO`, the cytotoxicity at 70.5 h was determined as 12.9%.

Consider `O=c1[nH]cnc2c1CCN(S(=O)(=O)c1cccc(OC(F)(F)F)c1)C2`, for which the cytotoxicity at 70.5 h was -5.76%.

As to `Cc1cc(N2CCC(c3n[nH]c4nccnc34)CC2)ncn1`, the cytotoxicity at 70.5 h was 19%.

Regarding `N[C@@H]1c2ccccc2C2(CCN(c3cccc(C(F)(F)F)n3)CC2)[C@H]1O`, the cytotoxicity at 70.5 h was found to be 5.4%.

Consider `Cc1noc(C)c1CN1C(=O)[C@H]2CC[C@@H]1CN(Cc1cccc(O)c1)C2`, for which the cytotoxicity at 70.5 h was found to be 5.47%.

Consider `COc1cccc(CN2C[C@@H]3COC[C@]3(COCc3ccncc3)C2)c1`, for which the cytotoxicity at 70.5 h is 5.79%.

Regarding `CN(Cc1cccc(F)c1)C(=O)CS(=O)(=O)Cc1c(Cl)cccc1Cl`, the cytotoxicity at 70.5 h was determined as 5.76%.

In the case of `O=C(NC1CCCC1)c1n[nH]c2c1CNCC2`, the cytotoxicity at 70.5 h was -12.1%.

As to `CC(C)N1CCC(CNC(=O)CCc2cc(F)ccc2F)C1` (stereo not drawn), the cytotoxicity at 70.5 h is 14.8%.

`Cc1cc(CN(C)C2CCCN(Cc3noc(C)n3)C2)no1` (stereo not drawn): the cytotoxicity at 70.5 h was found to be 7.31%.

On to `CC(C)O[C@H]1CN(Cc2cnc3c(-c4ccccc4)cnn3c2)C[C@@H]1O`, for which the cytotoxicity at 70.5 h was -5.99%.

Turning to `Cc1cc(C)n(-c2nc(C(=O)NCCN3CCC(C)CC3)cs2)n1`, the cytotoxicity at 70.5 h is -5.84%.

Regarding `Clc1ccc2nncc(N3CCCCC3)c2c1`, the cytotoxicity at 70.5 h is -10.7%.

Regarding `Cc1nc(C(=O)N2CCOC(c3nc(C(C)C)n[nH]3)C2)c[nH]1` (stereo not drawn), the cytotoxicity at 70.5 h was -2.01%.

In the case of `CN(C)CC(=O)N1C[C@H]2CCC[C@@]2(COc2ccccn2)C1`, the cytotoxicity at 70.5 h is -16.4%.

On to `O=C(NCc1ccc2c(c1)OCO2)N1CCCC2(C1)OCCO2`, for which the cytotoxicity at 70.5 h was -7.83%.

On to `CCS(=O)(=O)N1CCC2(C1)C(=O)N(C)CCN2Cc1ccncc1` (stereo not drawn), for which the cytotoxicity at 70.5 h is -7.36%.

As for `O=C1CCCc2cc(-c3csc(CCN4CCOC4=O)n3)ccc2N1`, the cytotoxicity at 70.5 h was -0.559%.

For the molecule `CC1COCCN1C(=O)c1cccc(OCc2cscn2)c1` (stereo not drawn), the cytotoxicity at 70.5 h was -8.23%.

Turning to `CCN1CCN(C(=O)c2ccc(=O)n(C)c2)c2ccccc21`, the cytotoxicity at 70.5 h was -3.86%.

For `Cc1ccc(CNc2ccc(N3CCC(CO)CC3)cn2)o1`, the cytotoxicity at 70.5 h is -2.34%.

In the case of `Cn1c(=O)[nH]c(=O)c2cc(C(=O)N3CCCC3C3CCCC3)cnc21` (stereo not drawn), the cytotoxicity at 70.5 h was 22.8%.

As for `Nc1nc2c(c(NCc3ccc(C(=O)N4CCCC4)cc3)n1)CCCC2`, the cytotoxicity at 70.5 h turned out to be 2.85%.

For `O=C(CSC1CCCC1)N1CCN(C(=O)C2CC2c2ccccc2)CC1` (stereo not drawn), the cytotoxicity at 70.5 h was -3.24%.

Consider `O=C(Cn1cnc2cc3c(cc21)OCCCO3)NCCc1ccccc1`, for which the cytotoxicity at 70.5 h stood at 0.395%.

Consider `CC(NC(=O)CCn1c(=O)oc2ccccc21)c1ccccn1` (stereo not drawn), for which the cytotoxicity at 70.5 h was -2.59%.

For the molecule `CCSCc1ccnc(NC(=O)C2CCOC2)c1` (stereo not drawn), the cytotoxicity at 70.5 h was -4%.

In the case of `COc1c(CNCc2ccc(OCC(N)=O)cc2)c(C)nn1C`, the cytotoxicity at 70.5 h worked out at 7.56%.

Take `CCOc1ccccc1C(C(=O)O)N(C)Cc1nnc(C)o1` (stereo not drawn): the cytotoxicity at 70.5 h was -2.69%.

With `CN(Cc1nnc(C2CC2)o1)C(c1ccc(F)cc1)c1cccnc1` (stereo not drawn), the cytotoxicity at 70.5 h worked out at 0.0755%.

Take `CCOc1ccc(-c2ccnc(CC)n2)cc1C(=O)O`: the cytotoxicity at 70.5 h is -7.1%.

Take `Cc1cc(O)nc(C2CCCN(CCO)C2)n1` (stereo not drawn): the cytotoxicity at 70.5 h was -1.84%.

As for `CCN(C)C(C(=O)Nc1ccc2c(c1)CCC(=O)N2)c1ccccc1` (stereo not drawn), the cytotoxicity at 70.5 h was -15.5%.

Regarding `Cc1cc(N2CCC(NC(=O)CCc3ccco3)CC2)nc(C)n1`, the cytotoxicity at 70.5 h was determined as 11.4%.

In the case of `O=C(NCc1ccc2nonc2c1)C1CCN(C(=O)C2CCC2)CC1`, the cytotoxicity at 70.5 h is -6.22%.

Regarding `COC[C@]1(O)CCN(C2CCN(c3ccc(Cl)cc3)CC2)CC1(C)C`, the cytotoxicity at 70.5 h was determined as 22.5%.

On to `NCCC(=O)N1CCC2(CC1)CN(C(=O)c1ccc(Cl)cc1)CCO2`, for which the cytotoxicity at 70.5 h is -12.1%.

As for `CC(NC(=O)c1cccs1)(C(N)=O)c1cccc(C(F)(F)F)c1` (stereo not drawn), the cytotoxicity at 70.5 h is -101%.

Consider `CC(C)CNC(=O)C[S+]([O-])Cc1csc(C2CCCCC2)n1` (stereo not drawn), for which the cytotoxicity at 70.5 h was -13%.

Take `O=C(NC[C@H]1OC[C@@H]2CCN(Cc3ccco3)C[C@@H]21)c1ccnnc1`: the cytotoxicity at 70.5 h is -1.68%.

Consider `CCc1ccc(C(=O)O)cc1S(=O)(=O)Nc1ccc(=O)n(C)c1`, for which the cytotoxicity at 70.5 h worked out at 5.54%.

Turning to `Cc1ccccc1-n1c(C)cc(C(=O)N2CCn3c(C)nnc3C2)c1C`, the cytotoxicity at 70.5 h was -1.44%.

With `CCN(Cc1nc2c(cnn2C)c(=O)[nH]1)c1cccc(C)c1`, the cytotoxicity at 70.5 h was determined as 4.24%.

Consider `COC1CCN(C(=O)CC(C)(C)C)CC(=O)N(C)c2ccccc21` (stereo not drawn), for which the cytotoxicity at 70.5 h was determined as 6.54%.

Consider `Cc1nn(C)cc1-c1ccnc(N2CCSCC2)n1`, for which the cytotoxicity at 70.5 h was -1.53%.

Consider `CC(C)(C)CC(=O)N1CSCC1C(=O)NCc1cccc(C#N)c1` (stereo not drawn), for which the cytotoxicity at 70.5 h worked out at 15.4%.

Take `Cc1ccc(NC(=O)c2nc3c(s2)CCCN3C(C)C)cn1`: the cytotoxicity at 70.5 h is -0.97%.

As to `O=c1[nH]c2ccccc2c(=O)n1Cc1nnnn1C1CC1`, the cytotoxicity at 70.5 h came to 2.86%.

With `CC(C)Nc1nc2c(c(NC3CC3)n1)CN(C(=O)c1ccncc1)CC2`, the cytotoxicity at 70.5 h stood at 32.7%.

For `Cc1cccc(NC(=O)c2sc(C)nc2C)n1`, the cytotoxicity at 70.5 h is -11.8%.

For the molecule `CCn1cc(C(=O)Nc2cc(C(=O)OC)ccc2C(=O)OC)cn1`, the cytotoxicity at 70.5 h was -9%.

With `O=C(c1cc(CC2(NCC3CCCCC3)COC2)no1)N1CCCCC1`, the cytotoxicity at 70.5 h is -6.68%.

`Cc1cccc(C)c1CNC1(CCO)CCOCC1`: the cytotoxicity at 70.5 h was -16%.

For `O=C(c1ccccc1)N1CCO[C@@H]2CNC[C@@H]21`, the cytotoxicity at 70.5 h is -5.73%.

For the molecule `CCN(CC(=O)NC)C(=O)c1csc(Cc2ccccc2)n1`, the cytotoxicity at 70.5 h is -2.3%.

For `Cc1cc(NCCO)nc(N2CCCC2)c1C#N`, the cytotoxicity at 70.5 h came to 2.8%.

Regarding `CN1CCC(Cc2noc(-c3cccc(OCC(N)=O)c3)n2)CC1`, the cytotoxicity at 70.5 h amounted to 7.49%.

Regarding `Cn1cc(C(=O)NC[C@@H]2OC[C@H]3CN(S(C)(=O)=O)CC[C@H]32)cn1`, the cytotoxicity at 70.5 h is -3.04%.

Consider `CCc1ncncc1C(=O)NCCN1CCC(C)CC1`, for which the cytotoxicity at 70.5 h is -4.63%.

`CCOCCNC(=O)c1cccnc1Sc1cc(OC)ccc1OC`: the cytotoxicity at 70.5 h came to 15.5%.

For `Cc1nn(C)c(Oc2ccc(Cl)cc2)c1CN1CC[C@H](CO)[C@@H](O)C1`, the cytotoxicity at 70.5 h was -12.9%.

With `NC(=O)N1CCCC(C(=O)N2CCN(c3nsc4ccccc34)CC2)C1` (stereo not drawn), the cytotoxicity at 70.5 h was -3.95%.

As to `O=C(NCCCN1CCOCC1)Nc1cnc2cc(Cl)ccc2c1O`, the cytotoxicity at 70.5 h is 9.66%.

Consider `NC(=O)C1CCN(CC(=O)N2CCCC2c2ccsc2)CC1` (stereo not drawn), for which the cytotoxicity at 70.5 h is -4.16%.

For `O=C1NCC2=C1C(c1ccc(O)cc1)Nc1ccccc1N2` (stereo not drawn), the cytotoxicity at 70.5 h is -6.66%.

Turning to `Cc1noc(NC(=O)c2ccc(Br)o2)n1`, the cytotoxicity at 70.5 h is -9.68%.

Regarding `CC(C)CCN1CN=C(NS(=O)(=O)c2ccc(F)cc2)NC1`, the cytotoxicity at 70.5 h is -8.69%.

In the case of `CCn1c(CN(C)C)nnc1C1CCN(Cc2ccncc2)CC1`, the cytotoxicity at 70.5 h was -6.3%.

With `CCOC1CC2(CCN(Cc3nccn3C)CC2)C1`, the cytotoxicity at 70.5 h is -0.734%.

Consider `CCOc1ncccc1NC(=O)Nc1c(C)nn(C(C)C)c1C`, for which the cytotoxicity at 70.5 h was -4.11%.

Turning to `CC(C)COc1ccc(C2SCC(=O)Nc3c2c(=O)[nH]n3C(C)C)cc1` (stereo not drawn), the cytotoxicity at 70.5 h is -4.59%.

For the molecule `CCc1ccc(C(COC)NC(=O)c2ccc(O)nc2)o1` (stereo not drawn), the cytotoxicity at 70.5 h is -6.34%.

In the case of `CS(=O)(=O)N[C@H]1COC[C@@H]2CN(Cc3ccco3)C[C@@H]21`, the cytotoxicity at 70.5 h was -5.39%.

In the case of `O=C(NCCSc1ccccc1)[C@H]1CNC[C@H](C(=O)N2CCOCC2)C1`, the cytotoxicity at 70.5 h was -6.2%.

Consider `COCCC1(CO)CCCN(C(=O)c2cc(Cl)ccc2F)C1` (stereo not drawn), for which the cytotoxicity at 70.5 h is -11%.

On to `CC(C)Cn1cc(NC(=O)c2cccc(N(C)C)c2)cn1`, for which the cytotoxicity at 70.5 h is -8.55%.

As to `Cc1nc(CN2CCN(C(=O)COc3c(C)ccc(C)c3C)CC2)no1`, the cytotoxicity at 70.5 h was -4.73%.

As for `Cc1ccc(C(=O)Nc2cc(C(C)C)n[nH]2)cn1`, the cytotoxicity at 70.5 h amounted to 31.4%.

As for `CN(Cc1ccco1)C(=O)CN1CCOC(Cn2cccn2)C1` (stereo not drawn), the cytotoxicity at 70.5 h is -1.5%.

Turning to `O=C(c1cccnc1)N1CCc2ncnc(N3CCOCC3)c2CC1`, the cytotoxicity at 70.5 h is -7.42%.

Take `Cn1ccc(C(=O)N2CCCC(Cc3cccc4cccnc34)C2)n1` (stereo not drawn): the cytotoxicity at 70.5 h stood at 11.6%.

As to `COc1ccc(-c2noc(CN3CC(n4cccn4)C3)n2)c(OC)c1`, the cytotoxicity at 70.5 h is -7.32%.

Take `CCc1nccn1C1CCCN(C(=O)CCOCC(F)(F)F)C1` (stereo not drawn): the cytotoxicity at 70.5 h was -14%.

`OCC(O)CSCc1ccc(Cl)cc1Cl` (stereo not drawn): the cytotoxicity at 70.5 h amounted to 0.304%.

Consider `Cc1ccc2cc(C(=O)N3CCN(C(=O)N(C)C)CC3)ccc2n1`, for which the cytotoxicity at 70.5 h is -2.65%.

In the case of `COc1ccccc1C(=O)C1CCCN(c2cc(C#N)ccn2)C1` (stereo not drawn), the cytotoxicity at 70.5 h was -1.63%.

On to `c1csc(SCC2CN=C(N3CCOCC3)S2)c1` (stereo not drawn), for which the cytotoxicity at 70.5 h was -3.45%.

As to `O=C(Nc1ccccn1)c1csc(NC2CCCC2)n1`, the cytotoxicity at 70.5 h was 1.59%.

For the molecule `CN(CCNC(=O)Nc1cnn(C)c1)Cc1ccc(F)cc1`, the cytotoxicity at 70.5 h was -20.9%.

Turning to `CC(C)(C)c1ccc2c(c1)CCN2C(=O)c1nc(=O)[nH][nH]1`, the cytotoxicity at 70.5 h was 0.34%.

Consider `CCS(=O)(=O)c1ccc(N2CCC(NC(=O)c3ccccn3)CC2)cc1`, for which the cytotoxicity at 70.5 h worked out at 29%.

Consider `O=C(c1cc(COc2ccc3c(c2)OCO3)[nH]n1)N1CCCCO1`, for which the cytotoxicity at 70.5 h came to 20.1%.

For `Cc1cnn(CCNCc2cc(=O)n3cc(Cl)ccc3n2)c1`, the cytotoxicity at 70.5 h is -6.7%.

Regarding `CCCn1nc(C(=O)N2CCCC2c2noc(C)n2)ccc1=O` (stereo not drawn), the cytotoxicity at 70.5 h was -0.244%.

For `FC(F)(F)c1cc(NCCn2ncnn2)nc(-c2cccnc2)n1`, the cytotoxicity at 70.5 h is -9.6%.

Source of the values: ChEMBL document CHEMBL3507680, “University of Dundee, Gates Library screen for HepG2 cell viability”.
